US20150353495A1 (PORTOLA PHARMACEUTICALS, INC., priority 2010, published 2015)

Key:
[1] = test system: markers of allogeneic response (interferon gamma); details: kidney allograft patients; cited from earlier work
[2] = target: T1, full length active recombinant SYK enzyme (Homo sapiens, UniProt P43405); test: Inhibition of Syk tyrosine phosphorylation activity (LANCE TR-FRET); assay type: biochemical
T1 construct: full length active recombinant SYK enzyme (Millipore, Calif.); purchased Millipore
Description: This example illustrates methods for evaluating the compounds of the invention, along with results obtained for such assays. The in vitro and in vivo human Syk activities of the inventive compounds can be determined by various procedures known in the art, such as a test for their ability to inhibit the activity of human plasma Syk. […] The IC50 value is the concentration (in nM) of the compound required to provide 50% inhibition of human Syk proteolytic activity.
An in vitro assay for detecting and measuring inhibition activity against Syk is as follows:
Inhibition of Syk Tyrosine Phosphorylation Activity
Potency of candidate molecules for inhibiting Syk tyrosine phosphorylation activity is assessed by measuring the ability of a test compound to inhibit Syk-mediated tyrosine phosphorylation of a Syk-specific substrate.
SYK tyrosine phosphorylation activity is measured using the LANCE™ Technology developed by Perkin Elmer Life and Analytical Sciences (Boston, Mass.). LANCE™ refers to homogeneous time resolved fluorometry applications using techniques such as time-resolved fluorescence resonance energy transfer assay (TR-FRET) (see generally for procedures in Perkin Elmer Application Note-How to Optimize a Tyrosine Kinase Assay Using Time Resolved Fluorescence-Based LANCE Detection, wwww.perkinelmer.com/lifesciences). The assay principle involves detection of a phosphorylated substrate using energy transfer from a phosphospecific europium-labeled antibody to streptavidin-allophycocyanin as an acceptor.
To test the ability of candidate molecules to inhibit SYK tyrosine phosphorylation activity, molecules are reconstituted in 30% DMSO and serially diluted 1:3 with the final dilution containing DMSO in the absence of the candidate molecule. The final DMSO concentration in the assay is 3%. Kinase assays are performed as a two part reaction. The first reaction is a kinase reaction and which comprises of a candidate molecule, full length active recombinant SYK enzyme (Millipore, Calif.) and biotin-labeled SYK-specific substrate biotin-[…]-OH. The second reaction involves termination of the kinase reaction and the simultaneous addition of the detection reagents-europium-labeled anti-phosphotyrosine reagent (Eu-W1024-PY100, Perkin Elmer, Boston, Mass.) and Streptavidin-Allophycocyanin detection reagent (SA-APC, Prozyme, CA). The kinase reaction is performed in a black U-bottom 96-well microtitre plate. The final reaction volume is 50 μL and contains a final concentration of 1 nM active SYK enzyme, 550 nM SYK-substrate, and 100 nM ATP diluted in a buffer containing 50 mM Tris pH 7.5, 5 mM MgCl2, and 1 mM DTT. The reaction is allowed to proceed for 1 hour at room temperature. The quench buffer contains 100 mM Tris pH 7.5, 300 mM NaCl2, 20 mM EDTA, 0.02% Brij35, and 0.5% BSA. The detection reagents are added to the reaction mixture at the following dilutions-1:500 for Eu-W1024-PY100 and 1:250 for SA-APC. The kinase reaction is terminated by the addition of 50 μL quench buffer containing the detection reagents. […] Detection of the phosphorlated substrate in the absence and presence of inhibitors is measured in the TR-FRET instrument, Analyst HT (Molecular Probes, Sunnyvale, Calif.) and the condition for measurements are set up using CriterionHost Release 2.0 (Molecular Probes, Sunnyvale, Calif.). […] Inhibition of SYK-tyrosine kinase activity is calculated as the maximum response observed in the presence of inhibitor, compared to that in the absence of inhibitor. […]

JAK1 = target: T2, JAK1 (Homo sapiens, UniProt P23458); test: Z'-LYTE kinase assay JAK1; assay type: biochemical
T2 construct: 5 μl of catalytic domain recombinant Kinase enzyme+Tyr peptide substrate (Invitrogen, CA); purchased Invitrogen
Method in brief: (§1)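 Catalytic-domain recombinant kinase was incubated with Tyr6 FRET peptide, ATP and compound (1% DMSO final) for 1 h at room temperature. Protease development followed for 1 h, cleaving only non-phosphorylated peptide. Inhibition of phosphorylation was read as coumarin/fluorescein FRET fluorescence.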

JAK2 = target: T3, JAK2 (Homo sapiens, UniProt O60674); test: Z'-LYTE kinase assay JAK2; assay type: biochemical
T3 construct: 5 μl of catalytic domain recombinant Kinase enzyme+Tyr peptide substrate (Invitrogen, CA); purchased Invitrogen
Method in brief: as §1

JAK3 = target: T4, JAK3 (Homo sapiens, UniProt P52333); test: Z'-LYTE kinase assay JAK3; assay type: biochemical
T4 construct: 5 μl of catalytic domain recombinant Kinase enzyme+Tyr peptide substrate (Invitrogen, CA); purchased Invitrogen
Method in brief: as §1

T2 sequence (P23458 875-1153 limits assumed): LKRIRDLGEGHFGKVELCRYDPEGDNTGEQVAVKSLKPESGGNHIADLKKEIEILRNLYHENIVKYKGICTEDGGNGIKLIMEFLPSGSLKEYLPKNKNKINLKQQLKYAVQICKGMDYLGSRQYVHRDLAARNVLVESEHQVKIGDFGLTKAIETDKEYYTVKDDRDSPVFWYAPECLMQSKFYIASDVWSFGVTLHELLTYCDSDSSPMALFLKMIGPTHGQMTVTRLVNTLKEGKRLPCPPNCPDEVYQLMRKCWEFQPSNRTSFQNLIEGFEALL
T4 sequence (P52333 822-1111 limits assumed): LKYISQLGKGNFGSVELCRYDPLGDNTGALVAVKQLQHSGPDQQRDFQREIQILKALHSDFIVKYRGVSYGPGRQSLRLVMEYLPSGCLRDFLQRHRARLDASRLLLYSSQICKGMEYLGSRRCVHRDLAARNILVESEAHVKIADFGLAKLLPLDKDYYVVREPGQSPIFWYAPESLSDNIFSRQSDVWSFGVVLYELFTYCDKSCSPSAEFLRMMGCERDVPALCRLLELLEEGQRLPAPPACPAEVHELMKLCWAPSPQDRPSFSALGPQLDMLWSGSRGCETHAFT
T3 sequence (O60674 849-1124 limits assumed): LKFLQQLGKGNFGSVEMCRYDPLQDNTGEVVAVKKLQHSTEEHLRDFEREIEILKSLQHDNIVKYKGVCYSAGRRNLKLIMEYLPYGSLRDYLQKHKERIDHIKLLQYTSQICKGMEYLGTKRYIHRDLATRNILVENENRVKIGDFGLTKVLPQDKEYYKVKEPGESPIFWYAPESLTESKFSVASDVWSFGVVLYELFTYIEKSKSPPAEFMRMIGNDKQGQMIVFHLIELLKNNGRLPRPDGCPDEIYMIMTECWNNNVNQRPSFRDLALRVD

| IC50 [2] [nM] | IC50 (JAK1) [nM] | IC50 (JAK2) [nM] | IC50 (JAK3) [nM] | SMILES | markers of allogeneic response (interferon gamma) [1] |
| --- | --- | --- | --- | --- | --- |
|  |  |  |  | C[C@H]1CCN(C(=O)CC#N)C[C@H]1N(C)c1ncnc2[nH]ccc12 [CP-690,550] | can be reduced |
| > 1000 | 100 to 1000 | 100 to 1000 | 100 to 1000 | CC(=O)N1CCN(c2ccc(Nc3ccc(C(N)=O)c(NC4CCC4)n3)cc2)CC1 [Example 1, 6-(4-(4-acetylpiperazin-1-yl)phenylamino)-2-(cyclobutylamino)nicotinamide] |  |
| > 1000 | > 1000 | 100 to 1000 | 1 to 10 | NC(=O)c1cnc(Nc2cccc(OCCN3CCOCC3)c2)cc1N[C@H](CO)c1ccccc1 [Example 230] |  |
| > 1000 | > 1000 | 100 to 1000 | 1 to 10 | CC(=O)N1CCN(c2ccc(Nc3cc(N[C@H](CO)c4ccccc4)c(C(N)=O)cn3)cc2)CC1 [Example 231] |  |
